Series [1] relates to pathological corneal neovascularization and fibrosis. On the set-up: method as in PMID 27356186, PMID 28055102. The conditions noted are these: cited from earlier work.
Series [2] can be described thus: Caco-2 permeability assay. The conditions noted are these: human, Caco-2, pH 7.4. (In general: Caco-2 cells form a polarised layer with tight junctions and transporters.)
Series [3] concerns MIA PaCa-2 cells. Description: MTT assay, MIA PaCa-2 pancreatic cancer cells. The class given is cell-based. The conditions noted are these: MIA PaCa-2, 72 hours. As to the method:
The MTT (3-[4,5-dimethylthiazol-2-yl]−2,5-diphenyltetrazolium bromide) assays were performed as previously described. In brief, cells were seeded in 96-well plates (6000 cells/well for MCF-7 and HCC1937 and 5000 cells for JIMT-1 in 180 μl fully-supplemented medium as described under Cell culture). The cells were incubated for 24 hours before addition of galectin-3 inhibitors. The inhibitors were diluted in PBS from their respective stock solution in DMSO (see Galectin-3 inhibitors) and used at final concentrations ranging from 0.04 to 40 μM. DMSO was adjusted to make the final DMSO concentration 0.2% for all inhibitor concentrations, including the control sample (no inhibitor). After 72 hours of treatment, 20 μl of 5 mg/ml MTT solution (in PBS) was added to each well and incubation continued for 1 hour at 37 °C. […] Absorbance was monitored at 540 nm using a Labsystems iEMS Reader MF (Labsystems Oy, Helsinki, Finland) and the software DeltaSoft II v.4.14 (Biometallics Inc., Princeton, NJ, USA). […]
(§1) Fluorescence anisotropy assay
The affinity between inhibitor 1 and the carbohydrate recognition domain (CRD) of galectin-8C and between inhibitor 3 and the CRD of galectin-2, -4N, -4C, 8C, and -9C was determined using the fluorescence anisotropy assay described in the main article. […]
A general note: Tetrazolium assays rely on reduction of a dye to a coloured formazan, in cell work by metabolically active cells.

For series [4], the system named is MIA PaCa-2 cells. The series can be described thus: Growth curves, MIA PaCa-2. The note with it: MIA PaCa-2, 10 µM. The class given is cell-based. The procedure:
(§2) METHODS (not described in main article)
(§3) The AsPC-1, BxPc-3, MIA PaCa-2, and PanC-1 pancreatic cancer cell lines were purchased from the American Type Culture Collection (ATCC) (Manassas, VA, USA). AsPC-1 and BxPc-3 cell lines were cultured in RPMI-1640 medium, and MIA PaCa-2 and PanC-1 in Dulbecco's Modified Eagle Medium (DMEM)/Ham's F12 medium mixture (1:1). The medium of all four pancreatic cancer cell lines was supplemented with 10 % fetal bovine serum (FBS), 100 U/ml penicillin, and 100 μg/ml streptomycin. The L56Br-C1 breast cancer cell line was established at Lund University (Lund, Sweden)1, and was cultured in RPMI-1640 medium supplemented with 10 % heat-inactivated FBS, 100 U/ml penicillin, 100 μg/ml streptomycin, 1 mM non-essential amino acids, and 10 µg/ml insulin. The MCF-10A normal-like breast cell line was obtained from ATCC and was cultured in the same medium mixture as L56Br-C1 with the addition of 20 ng/ml epidermal growth factor, 50 ng/ml cholera toxin, and 500 ng/ml hydrocortisone.
as §1
(§4) The affinity between inhibitor 1 and the carbohydrate recognition domain (CRD) of galectin-8C and between inhibitor 3 and the CRD of galectin-2, -4N, -4C, 8C, and -9C was determined using the fluorescence anisotropy assay described in the main article. Experimental conditions used for each galectin […]

A further series relates to L56Br-C1 cells. The series can be described thus: Growth curves, L56Br-C1 breast cancer cells. Type of series: cell-based. The conditions noted are these: L56Br-C1, 10 µM. The procedure: as §2, §3, §1, §4

What is called Papp A→B is how fast a substance crosses the layer from the apical side. A low value points to slow passage. By Papp B→A is commonly meant the apparent permeability from the basolateral to the apical side of a cell layer. With `OC[C@H]1O[C@@H](S[C@@H]2O[C@H](CO)[C@H](O)[C@H](n3cc(-c4cccc(F)c4)nn3)[C@H]2O)[C@H](O)[C@@H](n2cc(-c3cccc(F)c3)nn2)[C@H]1O` [compound 1], in series [1], the “effect in pathological corneal neovascularization and fibrosis” value is “therapeutic effects”. The Papp A→B in series [2] is 0.07 ×10⁻⁶ cm/s. The same compound displayed a Papp B→A in series [2] of 0.05 ×10⁻⁶ cm/s. The “toxicity (MTT)” value in the series on MIA PaCa-2 cells [3] is reported as “low toxicity”. The “cell proliferation (growth curves)” value in the series with MIA PaCa-2 cells [4] and in the series with L56Br-C1 cells was “no effect” each time.

(Values after paper PMC6379368, “Extracellular and intracellular small-molecule galectin-3 inhibitors” (Scientific Reports, 2019).)
